Experimental data reported in ChEMBL document CHEMBL5291721, “A preclinical secondary pharmacology resource illuminates target-adverse drug reaction associations of marketed drugs” (Nat Commun, 2023).

Tests used:
[1] = biological target: T1, Neuropeptide Y receptor type 2 (Homo sapiens, UniProt P49146)
T1 sequence (P49146 whole entry): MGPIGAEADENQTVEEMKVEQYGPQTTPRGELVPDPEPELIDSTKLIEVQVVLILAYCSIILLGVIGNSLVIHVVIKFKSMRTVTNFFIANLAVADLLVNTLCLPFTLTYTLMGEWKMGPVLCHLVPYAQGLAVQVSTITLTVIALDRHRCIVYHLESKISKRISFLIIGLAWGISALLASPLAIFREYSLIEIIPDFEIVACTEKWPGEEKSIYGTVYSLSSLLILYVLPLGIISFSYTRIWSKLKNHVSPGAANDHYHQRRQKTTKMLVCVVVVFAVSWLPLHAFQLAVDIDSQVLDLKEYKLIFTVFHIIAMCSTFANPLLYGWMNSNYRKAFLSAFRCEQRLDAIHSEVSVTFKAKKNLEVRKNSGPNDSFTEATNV

[2] = biological target: T2, Muscarinic acetylcholine receptor M2 (Homo sapiens, UniProt P08172)
T2 sequence (P08172 whole entry): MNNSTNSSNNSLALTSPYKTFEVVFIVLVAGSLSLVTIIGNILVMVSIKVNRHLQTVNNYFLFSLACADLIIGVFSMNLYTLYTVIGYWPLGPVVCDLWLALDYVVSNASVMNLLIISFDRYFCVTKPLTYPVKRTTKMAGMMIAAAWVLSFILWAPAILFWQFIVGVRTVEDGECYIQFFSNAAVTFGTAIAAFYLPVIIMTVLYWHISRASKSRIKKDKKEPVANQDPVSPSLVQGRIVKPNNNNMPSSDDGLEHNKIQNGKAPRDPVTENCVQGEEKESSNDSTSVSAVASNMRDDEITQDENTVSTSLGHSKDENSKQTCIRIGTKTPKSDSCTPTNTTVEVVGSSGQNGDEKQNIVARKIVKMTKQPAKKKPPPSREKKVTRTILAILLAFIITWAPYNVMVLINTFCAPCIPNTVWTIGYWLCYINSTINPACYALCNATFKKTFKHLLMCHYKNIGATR

[3] = biological target: T3, Gastric inhibitory polypeptide receptor (Homo sapiens, UniProt P48546)
T3 sequence (P48546 whole entry): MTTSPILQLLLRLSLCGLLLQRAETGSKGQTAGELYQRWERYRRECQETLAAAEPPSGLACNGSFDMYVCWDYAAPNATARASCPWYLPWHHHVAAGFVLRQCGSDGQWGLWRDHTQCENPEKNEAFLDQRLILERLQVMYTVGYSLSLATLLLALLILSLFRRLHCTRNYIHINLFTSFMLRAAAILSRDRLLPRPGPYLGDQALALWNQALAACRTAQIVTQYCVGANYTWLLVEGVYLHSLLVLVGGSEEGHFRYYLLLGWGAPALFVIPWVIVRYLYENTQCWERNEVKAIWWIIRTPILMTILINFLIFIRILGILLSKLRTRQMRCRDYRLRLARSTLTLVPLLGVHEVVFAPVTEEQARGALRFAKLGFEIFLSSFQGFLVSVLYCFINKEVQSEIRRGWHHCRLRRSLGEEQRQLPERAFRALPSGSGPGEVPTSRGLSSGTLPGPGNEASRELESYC

[4] = biological target: T4, Alpha-1A adrenergic receptor (Homo sapiens, UniProt P35348)
T4 sequence (P35348 whole entry): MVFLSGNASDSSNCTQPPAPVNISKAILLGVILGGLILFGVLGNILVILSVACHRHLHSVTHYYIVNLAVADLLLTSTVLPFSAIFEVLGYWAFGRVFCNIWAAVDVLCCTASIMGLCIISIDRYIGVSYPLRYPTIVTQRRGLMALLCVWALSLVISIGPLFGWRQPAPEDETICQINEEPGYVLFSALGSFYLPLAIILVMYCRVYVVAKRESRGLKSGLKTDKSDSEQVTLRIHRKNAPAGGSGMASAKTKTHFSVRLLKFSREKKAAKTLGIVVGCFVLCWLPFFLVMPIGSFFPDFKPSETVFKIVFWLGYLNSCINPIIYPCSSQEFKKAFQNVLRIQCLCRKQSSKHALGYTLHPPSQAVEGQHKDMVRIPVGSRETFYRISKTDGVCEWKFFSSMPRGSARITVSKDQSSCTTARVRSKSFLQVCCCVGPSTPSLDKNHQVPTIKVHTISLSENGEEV

[5] = biological target: T5, Corticotropin-releasing factor receptor 2 (Homo sapiens, UniProt Q13324)
T5 sequence (Q13324 whole entry): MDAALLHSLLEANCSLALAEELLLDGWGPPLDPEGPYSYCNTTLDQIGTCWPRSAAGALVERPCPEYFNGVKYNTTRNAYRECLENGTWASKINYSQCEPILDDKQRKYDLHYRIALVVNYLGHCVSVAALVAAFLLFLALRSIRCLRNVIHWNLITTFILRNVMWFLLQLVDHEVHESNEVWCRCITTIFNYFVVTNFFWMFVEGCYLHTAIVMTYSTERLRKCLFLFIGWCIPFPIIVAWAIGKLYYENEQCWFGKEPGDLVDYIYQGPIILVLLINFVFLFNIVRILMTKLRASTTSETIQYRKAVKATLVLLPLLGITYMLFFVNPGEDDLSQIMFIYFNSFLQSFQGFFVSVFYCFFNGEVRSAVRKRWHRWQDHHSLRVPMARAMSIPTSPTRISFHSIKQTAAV

B1 bradykinin receptor = biological target: T6, B1 bradykinin receptor (Homo sapiens, UniProt P46663)
T6 sequence (P46663 whole entry): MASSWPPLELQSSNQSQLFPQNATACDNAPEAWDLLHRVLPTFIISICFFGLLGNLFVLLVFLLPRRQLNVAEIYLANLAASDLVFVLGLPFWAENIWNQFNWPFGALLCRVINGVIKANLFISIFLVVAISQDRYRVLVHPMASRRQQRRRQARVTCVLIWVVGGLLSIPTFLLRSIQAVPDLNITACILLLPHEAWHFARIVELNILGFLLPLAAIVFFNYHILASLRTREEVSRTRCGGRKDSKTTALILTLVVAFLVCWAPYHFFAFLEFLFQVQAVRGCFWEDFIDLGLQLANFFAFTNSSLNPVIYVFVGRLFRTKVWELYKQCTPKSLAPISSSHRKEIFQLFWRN

[6] = biological target: 5-hydroxytryptamine receptor 7 (Homo sapiens, UniProt P34969)
[7] = biological target: 5-hydroxytryptamine receptor 2B (Homo sapiens, UniProt P41595)
Estrogen receptor beta = Estrogen receptor beta (Homo sapiens, UniProt Q92731)
[8] = biological target: Sodium channel protein type 5 subunit alpha (Homo sapiens, UniProt Q14524); type: functional, cell-based
[9] = biological target: 3',5'-cyclic-AMP phosphodiesterase 4A (Homo sapiens, UniProt P27815); type: functional
[10] = biological target: Beta-1 adrenergic receptor (Homo sapiens, UniProt P08588); type: functional, cell-based
Also: assay procedure not described here.

Chain of Estrogen receptor beta (Q92731 whole entry): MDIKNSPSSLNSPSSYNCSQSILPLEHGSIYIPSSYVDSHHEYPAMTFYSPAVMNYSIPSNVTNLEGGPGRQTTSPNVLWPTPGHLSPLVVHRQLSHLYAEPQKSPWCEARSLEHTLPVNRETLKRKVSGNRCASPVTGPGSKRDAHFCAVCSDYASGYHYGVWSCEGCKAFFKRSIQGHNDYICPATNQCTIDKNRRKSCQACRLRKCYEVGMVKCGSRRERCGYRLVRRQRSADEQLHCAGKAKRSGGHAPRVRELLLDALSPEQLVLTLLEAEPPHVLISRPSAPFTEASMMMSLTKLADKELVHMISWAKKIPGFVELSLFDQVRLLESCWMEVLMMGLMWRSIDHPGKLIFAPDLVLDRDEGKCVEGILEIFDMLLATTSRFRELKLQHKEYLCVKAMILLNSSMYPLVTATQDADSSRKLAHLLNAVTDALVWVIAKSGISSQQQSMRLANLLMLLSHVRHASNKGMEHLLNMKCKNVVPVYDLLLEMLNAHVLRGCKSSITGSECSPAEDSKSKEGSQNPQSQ
Chain of 5-hydroxytryptamine receptor 7 (P34969 whole entry): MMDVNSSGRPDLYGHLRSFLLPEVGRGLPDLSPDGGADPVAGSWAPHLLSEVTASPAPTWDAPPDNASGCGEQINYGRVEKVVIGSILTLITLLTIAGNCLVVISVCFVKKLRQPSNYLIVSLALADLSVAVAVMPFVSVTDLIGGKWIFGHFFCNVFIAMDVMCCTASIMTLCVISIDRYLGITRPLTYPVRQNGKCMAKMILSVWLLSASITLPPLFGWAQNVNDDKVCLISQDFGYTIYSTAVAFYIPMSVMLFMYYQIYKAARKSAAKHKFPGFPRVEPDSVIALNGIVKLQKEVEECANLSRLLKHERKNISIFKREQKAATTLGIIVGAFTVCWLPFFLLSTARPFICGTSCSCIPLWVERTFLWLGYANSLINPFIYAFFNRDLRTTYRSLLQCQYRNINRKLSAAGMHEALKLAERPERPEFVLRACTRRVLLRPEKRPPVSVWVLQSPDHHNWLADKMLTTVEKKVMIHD
Chain of Sodium channel protein type 5 subunit alpha (Q14524 whole entry): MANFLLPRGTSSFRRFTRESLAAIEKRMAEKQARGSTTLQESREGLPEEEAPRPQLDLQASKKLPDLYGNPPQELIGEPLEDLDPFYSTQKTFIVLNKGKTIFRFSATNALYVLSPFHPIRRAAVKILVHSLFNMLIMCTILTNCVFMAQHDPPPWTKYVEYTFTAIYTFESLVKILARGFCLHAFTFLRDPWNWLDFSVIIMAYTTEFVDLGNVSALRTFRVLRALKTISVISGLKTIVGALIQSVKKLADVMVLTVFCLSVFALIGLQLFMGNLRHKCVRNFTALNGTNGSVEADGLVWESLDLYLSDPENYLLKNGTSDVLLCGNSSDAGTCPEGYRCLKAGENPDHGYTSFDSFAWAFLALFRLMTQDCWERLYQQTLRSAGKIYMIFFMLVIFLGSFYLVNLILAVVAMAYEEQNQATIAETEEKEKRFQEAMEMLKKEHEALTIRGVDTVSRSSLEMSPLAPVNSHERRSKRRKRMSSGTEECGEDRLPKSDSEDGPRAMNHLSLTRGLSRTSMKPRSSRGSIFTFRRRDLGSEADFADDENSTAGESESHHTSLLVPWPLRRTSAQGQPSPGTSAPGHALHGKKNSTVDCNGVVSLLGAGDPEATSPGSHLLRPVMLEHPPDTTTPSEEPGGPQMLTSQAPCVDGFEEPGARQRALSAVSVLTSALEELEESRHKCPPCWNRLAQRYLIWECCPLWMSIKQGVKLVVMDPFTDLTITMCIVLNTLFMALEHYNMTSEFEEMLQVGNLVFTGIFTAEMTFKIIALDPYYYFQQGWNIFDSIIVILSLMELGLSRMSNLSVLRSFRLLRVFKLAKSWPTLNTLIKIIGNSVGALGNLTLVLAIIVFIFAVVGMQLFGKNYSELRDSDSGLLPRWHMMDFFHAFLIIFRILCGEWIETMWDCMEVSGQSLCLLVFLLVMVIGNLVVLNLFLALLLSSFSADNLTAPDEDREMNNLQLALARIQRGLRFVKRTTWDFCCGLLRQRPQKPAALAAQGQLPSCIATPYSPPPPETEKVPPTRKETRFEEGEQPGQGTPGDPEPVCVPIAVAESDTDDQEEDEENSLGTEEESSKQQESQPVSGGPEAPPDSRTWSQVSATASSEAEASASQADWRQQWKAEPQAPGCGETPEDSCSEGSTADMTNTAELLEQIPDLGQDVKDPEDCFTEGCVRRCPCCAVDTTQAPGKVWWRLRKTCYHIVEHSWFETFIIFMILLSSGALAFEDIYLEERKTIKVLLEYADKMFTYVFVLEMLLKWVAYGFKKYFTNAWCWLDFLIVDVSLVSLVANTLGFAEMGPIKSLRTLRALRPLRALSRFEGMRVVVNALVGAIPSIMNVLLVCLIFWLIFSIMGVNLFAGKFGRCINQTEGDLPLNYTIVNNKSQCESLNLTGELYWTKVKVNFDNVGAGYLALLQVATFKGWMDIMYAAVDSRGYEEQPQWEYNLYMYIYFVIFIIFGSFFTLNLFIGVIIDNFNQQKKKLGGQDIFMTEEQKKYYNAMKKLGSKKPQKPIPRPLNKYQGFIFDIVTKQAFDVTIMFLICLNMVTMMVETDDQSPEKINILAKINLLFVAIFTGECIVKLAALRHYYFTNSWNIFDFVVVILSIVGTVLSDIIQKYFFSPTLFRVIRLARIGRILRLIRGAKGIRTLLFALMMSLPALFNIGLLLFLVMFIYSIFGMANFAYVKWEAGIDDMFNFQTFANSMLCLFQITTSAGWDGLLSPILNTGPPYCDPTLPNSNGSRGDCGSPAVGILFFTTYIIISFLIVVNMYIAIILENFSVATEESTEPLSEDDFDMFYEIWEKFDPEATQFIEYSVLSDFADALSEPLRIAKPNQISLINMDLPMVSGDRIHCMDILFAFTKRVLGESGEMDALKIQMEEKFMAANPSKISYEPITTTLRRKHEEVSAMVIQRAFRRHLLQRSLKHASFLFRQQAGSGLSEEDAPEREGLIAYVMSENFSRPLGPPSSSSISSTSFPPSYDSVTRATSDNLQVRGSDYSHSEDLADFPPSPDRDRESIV
Chain of 5-hydroxytryptamine receptor 2B (P41595 whole entry): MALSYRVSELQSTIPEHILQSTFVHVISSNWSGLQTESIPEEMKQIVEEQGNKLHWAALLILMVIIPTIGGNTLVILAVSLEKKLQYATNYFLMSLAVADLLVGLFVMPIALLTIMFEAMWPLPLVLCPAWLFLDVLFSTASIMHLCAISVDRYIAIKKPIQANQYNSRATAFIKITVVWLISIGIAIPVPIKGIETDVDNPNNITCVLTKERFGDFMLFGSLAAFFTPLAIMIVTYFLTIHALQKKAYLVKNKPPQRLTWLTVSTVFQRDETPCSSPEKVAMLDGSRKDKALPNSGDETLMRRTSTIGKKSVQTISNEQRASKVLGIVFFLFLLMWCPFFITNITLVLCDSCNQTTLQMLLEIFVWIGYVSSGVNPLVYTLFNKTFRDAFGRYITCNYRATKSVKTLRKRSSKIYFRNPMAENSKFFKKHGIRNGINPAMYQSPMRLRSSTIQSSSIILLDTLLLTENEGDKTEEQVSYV
Chain of 3',5'-cyclic-AMP phosphodiesterase 4A (P27815 whole entry): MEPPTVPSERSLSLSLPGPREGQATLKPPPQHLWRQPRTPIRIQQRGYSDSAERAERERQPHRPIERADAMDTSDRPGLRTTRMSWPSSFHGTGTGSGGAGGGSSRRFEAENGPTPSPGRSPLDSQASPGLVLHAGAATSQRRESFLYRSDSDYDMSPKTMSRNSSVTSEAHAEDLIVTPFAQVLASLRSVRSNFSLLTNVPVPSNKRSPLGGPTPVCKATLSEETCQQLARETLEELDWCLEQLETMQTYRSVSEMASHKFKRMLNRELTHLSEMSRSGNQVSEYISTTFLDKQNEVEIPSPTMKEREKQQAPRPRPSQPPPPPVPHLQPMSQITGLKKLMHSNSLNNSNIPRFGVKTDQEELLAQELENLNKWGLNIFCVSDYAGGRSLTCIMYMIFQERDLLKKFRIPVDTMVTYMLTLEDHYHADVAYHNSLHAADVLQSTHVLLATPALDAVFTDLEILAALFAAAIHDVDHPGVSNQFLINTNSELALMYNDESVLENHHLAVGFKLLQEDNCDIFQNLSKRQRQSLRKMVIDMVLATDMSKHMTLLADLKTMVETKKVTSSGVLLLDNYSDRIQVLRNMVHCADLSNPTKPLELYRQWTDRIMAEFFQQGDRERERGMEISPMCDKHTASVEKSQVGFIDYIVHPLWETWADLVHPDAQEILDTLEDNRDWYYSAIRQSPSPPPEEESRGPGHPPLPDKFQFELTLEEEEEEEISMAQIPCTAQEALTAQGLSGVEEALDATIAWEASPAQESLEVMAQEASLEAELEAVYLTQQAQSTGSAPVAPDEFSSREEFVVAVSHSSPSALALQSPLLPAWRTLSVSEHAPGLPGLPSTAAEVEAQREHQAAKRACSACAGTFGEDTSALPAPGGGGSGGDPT
Chain of Beta-1 adrenergic receptor (P08588 whole entry): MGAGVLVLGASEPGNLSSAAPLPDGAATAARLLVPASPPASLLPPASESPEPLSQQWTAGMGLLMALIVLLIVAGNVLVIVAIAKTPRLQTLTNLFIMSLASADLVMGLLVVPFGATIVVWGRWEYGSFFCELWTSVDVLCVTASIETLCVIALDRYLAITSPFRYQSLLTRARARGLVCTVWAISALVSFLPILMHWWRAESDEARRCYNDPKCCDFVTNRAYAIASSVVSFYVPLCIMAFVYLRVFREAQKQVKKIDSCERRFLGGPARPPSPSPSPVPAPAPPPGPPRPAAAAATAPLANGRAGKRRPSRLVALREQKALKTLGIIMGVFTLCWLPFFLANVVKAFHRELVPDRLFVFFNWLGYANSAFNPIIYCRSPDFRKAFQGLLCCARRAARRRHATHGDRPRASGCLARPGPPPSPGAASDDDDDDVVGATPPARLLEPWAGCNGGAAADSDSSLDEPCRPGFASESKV

Molecule	AC50 [1]	AC50 [2]	AC50 [3]	AC50 [4]	AC50 [5]	AC50 (B1 bradykinin receptor)	AC50 [6]	AC50 [7]	AC50 (Estrogen receptor beta)	AC50 [8]	AC50 [9]	AC50 [10]
COC1=C(OC)C(=O)C(CCCCCCCCCCO)=C(C)C1=O [IDEBENONE]	> 30 µM	> 10 µM	> 30 µM	> 10 µM	> 30 µM	> 30 µM	> 10 µM	8.99 µM	> 30 µM			
CC#CCn1c(N2CCC[C@@H](N)C2)nc2c1c(=O)n(Cc1nc(C)c3ccccc3n1)c(=O)n2C [LINAGLIPTIN]		> 10 µM						> 10 µM		> 150 µM		
Cc1ccc(NC(=O)C2(c3ccc4c(c3)OC(F)(F)O4)CC2)nc1-c1cccc(C(=O)O)c1 [LUMACAFTOR]										> 50 µM		
O=C1CN=C(c2ccccc2)c2cc(Cl)ccc2N1 [NORDAZEPAM]	> 30 µM	> 10 µM	> 30 µM	> 10 µM	> 30 µM	> 30 µM	> 10 µM	> 10 µM	> 30 µM			
CC(CCc1ccccc1)NC(C)C(O)c1ccc(O)cc1 (stereo not given) [NYLIDRIN]	> 30 µM	> 10 µM	> 30 µM		> 30 µM	> 30 µM	> 10 µM	0.733 µM				
O=C1Nc2ccc(Cl)cc2C(c2ccccc2)=NC1O (stereo not given) [OXAZEPAM]	> 30 µM	> 10 µM	> 30 µM	> 10 µM	> 30 µM	> 30 µM	> 10 µM		> 30 µM			
Cc1ccc(=O)n(-c2ccccc2)c1 [PIRFENIDONE]										> 50 µM		
C[n+]1ccccc1/C=N/O [PRALIDOXIME]											> 30 µM	
CC(C)CC(N(C)C)C1(c2ccc(Cl)cc2)CCC1 (stereo not given) [SIBUTRAMINE]	> 30 µM	> 10 µM	> 30 µM	> 10 µM	> 30 µM	> 30 µM			> 30 µM			
[H]/N=C(/N)N[C@H]1[C@H](O)[C@@H](O)[C@H](O[C@@H]2O[C@@H](C)[C@](O)(C=O)[C@H]2O[C@@H]2O[C@@H](CO)[C@H](O)[C@@H](O)[C@@H]2NC)[C@@H](N/C(N)=N\[H])[C@@H]1O [STREPTOMYCIN]	> 30 µM		> 30 µM	> 10 µM	> 30 µM	> 30 µM	> 10 µM	> 10 µM	> 30 µM			
COc1c(O[C@@H]2O[C@H](CO)[C@@H](O)[C@H](O)[C@H]2O)cc2c(c1OC)-c1ccc(SC)c(=O)cc1[C@@H](NC(C)=O)CC2 [THIOCOLCHICOSIDE]												> 30 µM
N#C[C@@H]1CCCN1C(=O)CNC12CC3CC(CC(O)(C3)C1)C2 [VILDAGLIPTIN]		> 10 µM		> 10 µM			> 10 µM	> 10 µM				
COLISTIN											12 µM	
